Measurements taken from ChEMBL document CHEMBL5346930, “Discovery of novel N-benzylarylamide-dithiocarbamate based derivatives as dual inhibitors of tubulin polymerization and LSD1 that inhibit gastric cancers” (Eur J Med Chem, 2023).
pIC50: −log10 of the molar value. The source made the active and inactive calls. The rule behind the calls is not given here.

How the values were obtained:
HCT-116 = assay: cells; conditions: Homo sapiens, HCT-116, 48 h
Description: Antiproliferative activity against human HCT-116 cells assessed as inhibition of cell growth incubated for 48 hrs by MTT assay

KYSE-450 = assay: cells; conditions: Homo sapiens, KYSE-450, 48 h
Description: Antiproliferative activity against human KYSE-450 cells assessed as inhibition of cell growth incubated for 48 hrs by MTT assay

MGC-803 [1] = assay: cells; conditions: Homo sapiens, MGC-803, 48 h
Description: Antiproliferative activity against human MGC-803 cells assessed as inhibition of cell growth incubated for 48 hrs by MTT assay

[2] = molecular target: Lysine-specific histone demethylase 1A (Homo sapiens, UniProt O60341); assay: Inhibition of recombinant LSD1 (unknown origin) using H3K4me2 peptide as substrate preincubated for 10 mins followed by substrate addition and measured after 30 mins by amplex red based fluorescence microplate reader analysis
MGC-803 [3] = assay: Antitumor activity against human MGC-803 cells xenografted in BALB/c nude mouse assessed as reduction in tumor volume at 25 mg/kg/day, ip administered every day for 21 days; assay type: functional, organism-based; conditions: time 21.0 day
MGC-803 [4] = assay: Antitumor activity against human MGC-803 cells xenografted in BALB/c nude mouse assessed as reduction in tumor weight at 25 mg/kg/day, ip administered every day for 21 days; assay type: functional, organism-based; conditions: time 21.0 day
MGC-803 [5] = assay: Antitumor activity against human MGC-803 cells xenografted in BALB/c nude mouse assessed as tumor growth inhibition at 25 mg/kg/day, ip administered every day for 21 days; assay type: functional, organism-based; conditions: time 21.0 day

| SMILES | pIC50 (HCT-116) | pIC50 (KYSE-450) | pIC50 (MGC-803 [1]) | pIC50 [2] | Activity (MGC-803 [3]) | Activity (MGC-803 [4]) | Activity (MGC-803 [5]) |
| --- | --- | --- | --- | --- | --- | --- | --- |
| COc1ccc(CN(C(=O)CSC(=S)N2CCN(C3CC3)CC2)c2cc(OC)c(OC)c(OC)c2)cc1O | 6.32 | 6.68 | 6.92 |  |  |  |  |
| Cc1ccc(Cn2cc(CSC(=S)N3CCN(C(=O)OC(C)(C)C)CC3)nn2)cc1 | 4.89 | < 4.70 | 5.55 |  |  |  |  |
| COc1ccc(CN(C(=O)CSC(=S)N2CCC(C(=O)OC(C)(C)C)CC2)c2cc(OC)c(OC)c(OC)c2)cc1O | 6.96 | 6.70 | 6.74 |  |  |  |  |
| COc1ccc(CN(C(=O)CSC(=S)N2CCN(C(C)=O)CC2)c2cc(OC)c(OC)c(OC)c2)cc1O |  | 6.47 | 6.34 |  |  |  |  |
| COc1ccc(CN(C(=O)CSC(=S)N2CCC(C)CC2)c2cc(OC)c(OC)c(OC)c2)cc1O | 6.05 | 6.07 | 6.42 |  |  |  |  |
| COc1ccc(CN(C(=O)CSC(=S)N2CCC(c3ccccc3)CC2)c2cc(OC)c(OC)c(OC)c2)cc1O | 6.77 | 6.42 | 6.47 |  |  |  |  |
| COc1ccc(CN(C(=O)CSC(=S)N2CCN(c3ccccc3OC)CC2)c2cc(OC)c(OC)c(OC)c2)cc1O | 6.62 | 6.49 | 6.92 |  |  |  |  |
| COc1ccc(CN(C(=O)CSC(=S)N2CCC(O)CC2)c2cc(OC)c(OC)c(OC)c2)cc1O | 6.10 | 6.34 | 6.25 |  |  |  |  |
| COc1ccc(CN(C(=O)CSC(=S)N2CCN(C=O)CC2)c2cc(OC)c(OC)c(OC)c2)cc1O | 6.92 | 6.68 | 6.72 |  |  |  |  |
| CCN1CCN(C(=S)SCC(=O)N(Cc2ccc(OC)c(O)c2)c2cc(OC)c(OC)c(OC)c2)CC1 |  | 6.51 | 6.60 |  |  |  |  |
| COc1cc2c(c(OC)c1OC)-c1ccc(OC)c(=O)cc1[C@@H](NC(C)=O)CC2 [COLCHICINE] | 7.11 | 7.15 | 7.25 |  |  |  |  |
| NC1CCC(N[C@@H]2C[C@H]2c2ccccc2)CC1 (stereo not given in full) | < 4.70 | < 4.70 | < 4.70 |  |  |  |  |
| COc1ccc(CN(C(=O)CSC(=S)N2CCN(C)CC2)c2cc(OC)c(OC)c(OC)c2)cc1O | 6.09 | 6.12 | 6.57 |  |  |  |  |
| COc1ccc(CN(C(=O)CSC(=S)N2CCC(OC)CC2)c2cc(OC)c(OC)c(OC)c2)cc1O | 6.22 | 6.05 | 5.90 |  |  |  |  |
| COc1ccc(CN(C(=O)CSC(=S)N2CCN(S(C)(=O)=O)CC2)c2cc(OC)c(OC)c(OC)c2)cc1O | 6.30 | 6.37 | 6.64 |  |  |  |  |
| COC(=O)C1CCN(C(=S)SCC(=O)N(Cc2ccc(OC)c(O)c2)c2cc(OC)c(OC)c(OC)c2)CC1 | 6.64 | 6.55 | 6.51 |  |  |  |  |
| COc1ccc(/C=C\c2cc(OC)c(OC)c(OC)c2)cc1O |  |  |  |  | Active | Active | Active |
| CCOC(=O)C1CCN(C(=S)SCC(=O)N(Cc2ccc(OC)c(O)c2)c2cc(OC)c(OC)c(OC)c2)CC1 | 6.16 | 6.17 | 6.15 |  |  |  |  |
| COc1ccc(CN(C(=O)CSC(=S)N2CCN(CCO)CC2)c2cc(OC)c(OC)c(OC)c2)cc1O | 6.28 | 6.31 | 6.27 |  |  |  |  |
| COc1ccc(CN(C(=O)CSC(=S)N2CCN(C(C)(C)C)CC2)c2cc(OC)c(OC)c(OC)c2)cc1O | 6.21 | 6.15 | 6.37 |  |  |  |  |
| COc1ccc(CN(C(=O)CSC(=S)N2CCCC(C)C2)c2cc(OC)c(OC)c(OC)c2)cc1O (stereo not given) | 6.19 | 6.28 | 6.32 |  |  |  |  |

Continued by rising pIC50 (KYSE-450), values first:

| pIC50 (HCT-116) | pIC50 (KYSE-450) | pIC50 (MGC-803 [1]) | pIC50 [2] | SMILES | Activity (MGC-803 [3]) | Activity (MGC-803 [4]) | Activity (MGC-803 [5]) |
| --- | --- | --- | --- | --- | --- | --- | --- |
| 7.00 | 6.70 | 6.92 |  | COc1ccc(CN(C(=O)CSC(=S)N2CCN(C(=O)C3CC3)CC2)c2cc(OC)c(OC)c(OC)c2)cc1O |  |  |  |
| 6.80 | 6.77 | 7.00 |  | COc1ccc(CN(C(=O)CSC(=S)N2CCN(C(C)C)CC2)c2cc(OC)c(OC)c(OC)c2)cc1O |  |  |  |
| 6.80 | 6.80 | 6.85 |  | COC(=O)N1CCN(C(=S)SCC(=O)N(Cc2ccc(OC)c(O)c2)c2cc(OC)c(OC)c(OC)c2)CC1 |  |  |  |
| 7.00 | 7.07 | 7.11 |  | COc1ccc(CN(C(=O)CSC(=S)N2CCN(c3ccc(O)cc3)CC2)c2cc(OC)c(OC)c(OC)c2)cc1O |  |  |  |
| 6.66 | 7.11 | 7.08 | 5.57 | COc1ccc(CN(C(=O)CSC(=S)N2CCN(C(=O)OC(C)(C)C)CC2)c2cc(OC)c(OC)c(OC)c2)cc1O |  |  |  |
| 7.01 | 7.14 | 7.52 |  | CCCCN1CCN(C(=S)SCC(=O)N(Cc2ccc(OC)c(O)c2)c2cc(OC)c(OC)c(OC)c2)CC1 |  |  |  |
| 7.17 | 7.14 | 7.27 |  | COc1ccc(CN(C(=O)CSC(=S)N2CCN(c3ccc([N+](=O)[O-])cc3)CC2)c2cc(OC)c(OC)c(OC)c2)cc1O |  |  |  |
| 7.05 | 7.16 | 7.10 |  | CCOC(=O)N1CCN(C(=S)SCC(=O)N(Cc2ccc(OC)c(O)c2)c2cc(OC)c(OC)c(OC)c2)CC1 |  |  |  |
| 7.34 | 7.17 | 7.41 |  | COc1ccc(CN(C(=O)CSC(=S)N2CCN(c3ccc(F)cc3)CC2)c2cc(OC)c(OC)c(OC)c2)cc1O |  |  |  |
| 7.23 | 7.17 | 7.35 |  | COc1ccc(N2CCN(C(=S)SCC(=O)N(Cc3ccc(OC)c(O)c3)c3cc(OC)c(OC)c(OC)c3)CC2)cc1 |  |  |  |
| 7.27 | 7.21 | 7.55 |  | C/C=C/C(=O)N(Cc1ccc(OC)c(O)c1)c1cc(OC)c(OC)c(OC)c1 |  |  |  |
| 6.82 | 7.23 | 7.12 |  | COc1cccc(N2CCN(C(=S)SCC(=O)N(Cc3ccc(OC)c(O)c3)c3cc(OC)c(OC)c(OC)c3)CC2)c1 |  |  |  |
| 7.11 | 7.28 | 7.21 |  | COc1ccc(CN(C(=O)CSC(=S)N2CCN(c3ccccc3)CC2)c2cc(OC)c(OC)c(OC)c2)cc1O |  |  |  |
| 7.23 | 7.35 | 7.42 |  | COc1ccc(CN(C(=O)CSC(=S)N2CCN(c3ccc(Cl)cc3)CC2)c2cc(OC)c(OC)c(OC)c2)cc1O |  |  |  |
| 7.10 | 7.43 | 7.59 |  | COc1ccc(CN(C(=O)CSC(=S)N2CCN(c3ccc(C#N)cc3)CC2)c2cc(OC)c(OC)c(OC)c2)cc1O |  |  |  |
| 7.29 | 7.44 | 7.57 |  | COc1ccc(CN(C(=O)CSC(=S)N2CCN(c3ccc(Br)cc3)CC2)c2cc(OC)c(OC)c(OC)c2)cc1O |  |  |  |
